Measured values taken from ChEMBL document CHEMBL5661943, “ASAP - In vitro antiviral effect” (2024).
Where “and” joins values, the source holds several entries; their conditions need not be identical. Equal entries are not always repeated.

Experiments:
[1] = system: Zika virus; test: EC50 is reported via analysis of immunofluorescence staining. The assay has been performed by Icahn School of Medicine at Mount Sinai.; type: functional, organism-based, Chlorocebus sabaeus, VeroE6/TMPRSS2; conditions: for EC90: P-gp concentration 2 uM, P-gp inhibitor Elacidar
[2] = system: dengue virus type 2; test: Functional immunofluorescence assay to measure dose dependent changes in antiviral-drug inhibitory efficacy against Dengue virus type 2 Thailand/16681/84 in Vero E6/TMPRSS2 cells (cotreated with P-gp inhibitor, Elacridar). Cells are treated with antiviral candidates that are serially diluted, following infection, cells are fixed. EC50 is reported via analysis of immunofluorescence staining. The assay has been performed by Icahn School of Medicine at Mount Sinai.; type: organism-based, Chlorocebus sabaeus, VeroE6/TMPRSS2; conditions: Dengue virus; for EC90: P-gp concentration 2 uM, P-gp inhibitor Elacidar
[3] = system: Zika virus; test: Functional CPE-based assay to measure dose dependent changes in antiviral-drug inhibitory efficacy against Zika virus MR766 in Vero E6 miRFP670 cells (cotreated with P-gp inhibitor, CP100356). Cells are treated with antiviral candidates that are serially diluted. EC50 is reported via analysis of MTS assay as a readout of CPE. The assay has been performed by KU Leuven.; type: organism-based, Chlorocebus sabaeus, Vero C1008; conditions: Zika virus; for EC90: P-gp concentration 500 nM, P-gp inhibitor CP100356
[4] = system: dengue virus type 2; test: Functional assay to measure dose dependent changes in antiviral-drug inhibitory efficacy against Dengue virus type 2 New Guinea C in Vero E6 miRFP670 cells (cotreated with P-gp inhibitor, CP100356). Cells are treated with antiviral candidates that are serially diluted, following infection, cells are fixed. EC50 is reported via analysis of fluorescence intensity using high-content imager. The …; type: organism-based, Chlorocebus sabaeus, Vero C1008; conditions: Dengue virus; for EC90: P-gp concentration 500 nM, P-gp inhibitor CP100356

N#CCCNC(=O)[C@H](Nc1ccc2c(c1)CNC2)c1cc(Cl)cc(C2CC2)c1
EC90 ([1]; Zika virus, VeroE6/TMPRSS2, Maximum measured 63.585 %, Minimum measured 35.457 %): > 5.56 µM
EC90 ([1]; Zika virus, VeroE6/TMPRSS2, Baseline response 0 %, Hill slope -0.414, Maximum measured 108.813 %, Maximum response 100 %, Minimum measured 38.683 %, R squared 0.619): > 16.7 µM
EC50 ([1]; veroe6/tmprss2): > 5.56 µM and 2.54 µM
EC50 ([2]; VeroE6/TMPRSS2): > 50 µM
EC90 ([2]; VeroE6/TMPRSS2, Maximum measured 184.621 %, Minimum measured 81.605 %): > 50 µM
EC50 ([3]; Vero C1008): 4.22 µM
EC90 ([3]; Vero C1008, Baseline response 0 %, EC90 CI (lower) 2.191 uM, EC90 CI (upper) 28.402 uM, Hill slope 3.509, Maximum measured 177.981 %, Maximum response 100 %, Minimum measured 1.478 %, R squared 0.727): 7.89 µM
EC50 ([4]; Vero C1008): > 50 µM
EC90 ([4]; Vero C1008, Maximum measured 137.124 %, Minimum measured 107.523 %): > 50 µM

CNC(=O)[C@H](Nc1ccc2c(c1)CNC2)c1cc(Cl)cc2[nH]ncc12
EC50 ([1]; Zika virus, VeroE6/TMPRSS2): > 50 µM
EC90 ([1]; Zika virus, VeroE6/TMPRSS2, Maximum measured 122.029 %, Minimum measured 43.627 %): > 50 µM
EC90 ([1]; Zika virus, VeroE6/TMPRSS2, Baseline response 0 %, Hill slope 0.082, Maximum measured 101.866 %, Maximum response 100 %, Minimum measured 51.114 %, R squared 0.025): > 50 µM
EC50 ([2]; VeroE6/TMPRSS2): > 50 µM
EC90 ([2]; VeroE6/TMPRSS2, Maximum measured 241.837 %, Minimum measured 83.65 %): > 50 µM
EC50 ([3]; Vero C1008): > 50 µM
EC90 ([3]; Vero C1008, Baseline response 0 %, Hill slope 0.1, Maximum measured 6.056 %, Maximum response 100 %, Minimum measured 1.325 %, R squared 0.024): > 50 µM
EC50 ([4]; Vero C1008): > 50 µM
EC90 ([4]; Vero C1008, Baseline response 0 %, Hill slope 0.363, Maximum measured 102.287 %, Maximum response 100 %, Minimum measured 71.268 %, R squared 0.122): > 50 µM

Cc1cc(C(=O)Nc2ccc3c(c2)CNC3)c2cn[nH]c2c1
EC90 ([1]; Baseline response 0 %, Hill slope -2.011, Maximum measured 89.225 %, Maximum response 60 %, Minimum measured 14.739 %, R squared 0.55): > 50 µM
EC90 ([1]; Zika virus, VeroE6/TMPRSS2, Baseline response 0 %, Hill slope -0.435, Maximum measured 146.607 %, Maximum response 100 %, Minimum measured 37.409 %, R squared 0.47): > 50 µM
EC50 ([1]; veroe6/tmprss2): 4.92 µM and 30 µM
EC50 ([2]; VeroE6/TMPRSS2): > 16.7 µM
EC90 ([2]; VeroE6/TMPRSS2, Baseline response 0 %, Hill slope -0.131, Maximum measured 111.871 %, Maximum response 100 %, Minimum measured 74.867 %, R squared 0.056): > 16.7 µM
EC50 ([3]; Vero C1008): 7.79 µM
EC90 ([3]; Vero C1008, Baseline response 0 %, EC90 CI (lower) 4.895 uM, EC90 CI (upper) 50.446 uM, Hill slope 3.132, Maximum measured 172.887 %, Maximum response 100 %, Minimum measured 3.006 %, R squared 0.777): 15.7 µM
EC50 ([4]; Vero C1008): > 50 µM
EC90 ([4]; Vero C1008, Maximum measured 131.325 %, Minimum measured 92.066 %): > 50 µM

CC(=O)Nc1cc(Br)cc(C(=O)Nc2ccc3c(c2)CNC3)c1
EC90 ([1]; Baseline response 0 %, Hill slope -0.518, Maximum measured 97.567 %, Maximum response 50 %, Minimum measured 37.703 %, R squared 0.045): > 50 µM
EC50 ([1]; Zika virus, VeroE6/TMPRSS2): > 50 µM
EC90 ([1]; Zika virus, VeroE6/TMPRSS2, Baseline response 0 %, Hill slope -0.196, Maximum measured 132.114 %, Maximum response 100 %, Minimum measured 61.615 %, R squared 0.024): > 50 µM
EC50 ([2]; VeroE6/TMPRSS2): > 50 µM
EC90 ([2]; VeroE6/TMPRSS2, Maximum measured 175.614 %, Minimum measured 132.324 %): > 50 µM
EC50 ([3]; Vero C1008): > 50 µM
EC90 ([3]; Vero C1008, Baseline response 0 %, Hill slope -0.049, Maximum measured 5.994 %, Maximum response 100 %, Minimum measured 2.41 %, R squared 0.015): > 50 µM
EC50 ([4]; Vero C1008): > 50 µM
EC90 ([4]; Vero C1008, Baseline response 0 %, Hill slope 0.424, Maximum measured 105.264 %, Maximum response 100 %, Minimum measured 74.207 %, R squared 0.146): > 50 µM

CCc1cc(C(=O)Nc2cccc(-c3nnn[nH]3)c2)sc1-c1ccc(Cl)cc1
EC50 ([1]; Zika virus, VeroE6/TMPRSS2): > 16.7 µM
EC90 ([1]; Zika virus, VeroE6/TMPRSS2, Maximum measured 109.494 %, Minimum measured 75.609 %): > 16.7 µM
EC50 ([2]; VeroE6/TMPRSS2): > 16.7 µM
EC90 ([2]; VeroE6/TMPRSS2, Baseline response 0 %, Hill slope -0.101, Maximum measured 96.419 %, Maximum response 100 %, Minimum measured 50.045 %, R squared 0.073): > 16.7 µM
EC50 ([3]; Vero C1008): > 50 µM
EC90 ([3]; Vero C1008, Baseline response 0 %, Hill slope -0.614, Maximum measured 5.848 %, Maximum response 100 %, Minimum measured -4.216 %, R squared 0.418): > 50 µM
EC50 ([4]; Vero C1008): > 25 µM
EC90 ([4]; Vero C1008, Baseline response 0 %, Hill slope 0.831, Maximum measured 164.159 %, Maximum response 100 %, Minimum measured 71.563 %, R squared 0.225): > 25 µM

O=C(Nc1ccc2c(c1)CNC2)c1cc(F)cc2[nH]nnc12
EC50 ([1]; Zika virus, VeroE6/TMPRSS2): > 50 µM
EC90 ([1]; Zika virus, VeroE6/TMPRSS2, Maximum measured 143.994 %, Minimum measured 34.535 %): > 50 µM
EC50 ([2]; VeroE6/TMPRSS2): > 50 µM
EC90 ([2]; VeroE6/TMPRSS2, Maximum measured 175.922 %, Minimum measured 81.786 %): > 50 µM
EC90 ([2]; VeroE6/TMPRSS2, Baseline response 0 %, Hill slope 0.135, Maximum measured 108.442 %, Maximum response 100 %, Minimum measured 80.171 %, R squared 0.018): > 50 µM
EC50 ([3]; Vero C1008): > 50 µM
EC90 ([3]; Vero C1008, Maximum measured -0.357 %, Minimum measured -5.629 %): > 50 µM
EC50 ([4]; Vero C1008): > 50 µM
EC90 ([4]; Vero C1008, Maximum measured 103.909 %, Minimum measured 99.111 %): > 50 µM

N#Cc1cc(C(=O)Nc2ccc3c(c2)CNC3)cc(C(F)(F)F)c1
EC50 ([1]; Zika virus, VeroE6/TMPRSS2): > 50 µM
EC90 ([1]; Zika virus, VeroE6/TMPRSS2, Maximum measured 132.778 %, Minimum measured 43.807 %): > 50 µM
EC50 ([2]; VeroE6/TMPRSS2): 23.5 µM
EC90 ([2]; VeroE6/TMPRSS2, Baseline response 0 %, Hill slope -2.224, Maximum measured 139.741 %, Maximum response 100 %, Minimum measured 16.816 %, R squared 0.66): > 50 µM
EC50 ([3]; Vero C1008): > 50 µM
EC90 ([3]; Vero C1008, Baseline response 0 %, Hill slope 0.826, Maximum measured 10.885 %, Maximum response 100 %, Minimum measured 0.969 %, R squared 0.373): > 50 µM
EC50 ([4]; Vero C1008): > 50 µM
EC90 ([4]; Vero C1008, Baseline response 0 %, Hill slope 0.474, Maximum measured 101.337 %, Maximum response 100 %, Minimum measured 73.182 %, R squared 0.159): > 50 µM

O=C(NC[C@H]1CCCO1)[C@H](Nc1ccc2c(c1)CNC2)c1cc(Cl)cc2[nH]ncc12
EC50 ([1]; Zika virus, VeroE6/TMPRSS2): 0.309 µM
EC90 ([1]; Zika virus, VeroE6/TMPRSS2, Baseline response 0 %, Hill slope -0.364, Maximum measured 91.96 %, Maximum response 100 %, Minimum measured 21.463 %, R squared 0.587): > 16.7 µM
EC50 ([2]; VeroE6/TMPRSS2): > 16.7 µM
EC90 ([2]; VeroE6/TMPRSS2, Maximum measured 188.503 %, Minimum measured 79.522 %): > 16.7 µM
EC50 ([3]; Vero C1008): > 50 µM
EC90 ([3]; Vero C1008, Baseline response 0 %, Hill slope 0.096, Maximum measured 37.493 %, Maximum response 100 %, Minimum measured 16.803 %, R squared 0.054): > 50 µM
EC50 ([4]; Vero C1008): > 6.25 µM
EC90 ([4]; Vero C1008, Maximum measured 107.029 %, Minimum measured 98.467 %): > 6.25 µM

O=C(NC[C@H]1CCCO1)[C@H](Nc1ccc2c(c1)CNC2)c1cc(Cl)cc(C2CC2)c1
EC50 ([1]; Zika virus, VeroE6/TMPRSS2): > 5.56 µM
EC90 ([1]; Zika virus, VeroE6/TMPRSS2, Maximum measured 140.093 %, Minimum measured 93.076 %): > 5.56 µM
EC90 ([1]; Zika virus, VeroE6/TMPRSS2, Baseline response 0 %, Hill slope 0.091, Maximum measured 92.664 %, Maximum response 100 %, Minimum measured 73.777 %, R squared 0.029): > 5.56 µM
EC50 ([2]; VeroE6/TMPRSS2): > 50 µM
EC90 ([2]; VeroE6/TMPRSS2, Maximum measured 244.293 %, Minimum measured 137.827 %): > 50 µM
EC50 ([3]; Vero C1008): > 25 µM
EC90 ([3]; Vero C1008, Baseline response 0 %, Hill slope 2.187, Maximum measured 41.665 %, Maximum response 100 %, Minimum measured -0.442 %, R squared 0.938): > 25 µM
EC50 ([4]; Vero C1008): > 50 µM
EC90 ([4]; Vero C1008, Baseline response 0 %, Hill slope -0.736, Maximum measured 108.993 %, Maximum response 100 %, Minimum measured 54.851 %, R squared 0.259): > 50 µM
